Tests used:
[1] = test system: rat primary septal neuron culture; test: Measurement of acetylcholine (ACh) release in the rat primary septal neuron culture system in the presence of NGF; assay type: cell-based; conditions: rat primary septal neurons, with NGF, one day after compound addition, ACh by HPLC
From the text: Measurement of acetylcholine (ACh) release in the rat primary septal neuron culture system in the presence of NGF
(1) Rat Primary Septal Neuron Culture
The septal area was isolated from Sprague-Dawley (SD) rats (Charles River Laboratories Japan, Inc.) at a fetal age of 18 days, and cultured.
Specifically, fetuses were aseptically removed from pregnant rats under isoflurane anesthesia. The brain was extracted from each fetus, and immersed in ice-cooled L-15 medium (11415-064, Thermo Fisher Scientific). The septal area was dissected from the extracted brain under a stereoscopic microscope. The dissected septal area was subjected to enzyme treatment in an enzyme solution containing 0.25% trypsin (15050-065, Thermo Fisher Scientific) and 0.01% DNase (D5025-150KU, Sigma) at 37° C. for 30 minutes, thereby dispersing the cells. In this case, the enzyme reaction was terminated by adding inactivated horse serum (26050-088, Thermo Fisher Scientific). The enzyme-treated solution was centrifuged at 1000 rpm for 3 minutes, and the supernatant was removed. A medium in an amount of 10 mL was added to the obtained cell mass. The medium used was Dulbecco's Modified Eagle's Medium (044-29765, WAKO) supplemented with N2 supplement (17502-048, Thermo Fisher Scientific), 1 mM sodium pyruvate (11360-070, Thermo Fisher Scientific), and Penicillin-Streptomycin (15140-1221, Thermo Fisher Scientific). The cells of the cell mass to which the medium was added were redispersed by gentle pipetting, and then centrifuged again at 1000 rpm for 3 minutes, and the supernatant was removed. The medium in an amount of 10 mL was added to the obtained cell mass, and the cell dispersion was filtered through a 40-μm nylon mesh (Cell Strainer) to remove the cell mass, thereby obtaining a neuronal cell suspension. The neuronal cell suspension was diluted with the medium, and 10% inactivated bovine serum (26140-079, Thermo Fisher Scientific) and 10% inactivated horse serum were added. Thereafter, 100 μL/well of the suspension was seeded in a 96-well plate (354461, CORNING) pre-coated with poly-D-lysine so that the initial culture density was 1.4×10^5 cells/cm^2. After the seeded cells were cultured under 5% CO2-95% air in a 37° C. incubator for 2 days, the entire medium was replaced with 120 μL of fresh medium, and the cells were subsequently cultured for 5 days.
On the 7th day of culture, compound was added in the following manner. A solution of the test compound in DMSO was diluted with the medium so that the concentration was 10 times higher than the final concentration. NGF (450-01, PEPRO TECH, INC.) was prepared at 0.3 ng/mL. These two solutions were added each in an amount of 15 μL/well, and the mixture was mixed well. The final DMSO concentration was 0.1% or less. Moreover, only DMSO and NGF were added to the control group.
(3) ACh Release Measurement
One day after compound addition, an amount of ACh release was measured by HPLC in the following manner. A warmed buffer was added at 100 μL/well to the well after the medium was eliminated, and the buffer was immediately removed. Thereafter, a buffer to which 10 μm choline, 10 μm physostigmine, and 6 mM KCl were added was added at 120 μL/well. The buffer was prepared by adding 125 mM NaCl, 25 mM 4-(2-hydroxyethyl)-1-piperazineethanesulfonic acid, 1.2 mM KH2PO4, 1.2 mM MgSO4, 2.2 mM CaCl2 (2H2O), and 10 mM glucose to sterilized water, and the final pH of the solution was set to 7.4. After the 96-well plate to which the buffer was added was incubated under 5% CO2-95% air in a 37° C. incubator for 40 minutes, 80 μL of buffer was collected. An internal standard solution IPHC (5×10^−7 M) was added in an amount of 6 μL to the collected buffer, and the buffer was transferred to a tube for HPLC measurement and subjected to HPLC measurement. […]

[2] = test system: Choline Acetyltransferase (ChAT) mRNA; test: Measurement of choline acetyltransferase (ChAT) mRNA expression levels in the rat septal area; assay type: in vivo; conditions: SD rat medial septum, 24 hours after administration, qPCR
Procedure: Measurement of Choline Acetyltransferase (ChAT) mRNA Expression Levels in the Rat Septal Area
(1) Compound Administration
In this study, SD male rats (Charles River Laboratories Japan, Inc.) with a body weight of about 250 to 350 g were used. The compound was dissolved in 0.01 mol/L hydrochloric acid, and orally administered.
At 24 hours after the administration of the compound, the whole brain tissue was collected under pentobarbital anesthesia. The medial septum was isolated from whole brain on ice and frozen with liquid nitrogen, and then stored at −80° C.
(3) Measurement of ChAT mRNA Expression Levels
For RNA purification, RNeasy Plus Mini Kit (#74136: QIAGEN) was used in this study. RNA purification was performed by the method described in the kit. After RNA purification, the total RNA concentration was measured by using QIAxpert Instrument (QIAGEN). cDNA was synthesized using SuperScript® VILO™ cDNA Synthesis Kit (#11754: Thermo Fisher Scientific). The synthesis of cDNA was performed by the method described in the kit. The synthesized cDNA was diluted 4 times with RNase free water, and the diluted cDNA solution was used as a sample. Taqman Universal PCR Master Mix (#4304437: Thermo Fisher Scientific), Taqman® Gene Expression Assays, INVENTORIED (#4331182: Thermo Fisher Scientific), RNase free water, and the cDNA solution were mixed in amounts of 10 μl, 1 μl, 4 μl, and 5 μl, respectively, and the resulting mixture was used as a measurement sample solution. Quantitative polymerase chain reaction (qPCR) was conducted using ABI PRISM® 7900HT (Thermo Fisher Scientific) by a fluorescence probe method. Analysis was performed by SDS 2.4 (Thermo Fisher Scientific). The results were calculated by the percentage of the amount of ChAT mRNA expression levels in the compound administration group increased from the amount of ChAT mRNA expression levels in the vehicle administration group.

SMILES | Concentration (μM) showing a 20% or more increase from the amount of ACh in the control group [1] [µM] | Amount (%) increased from the amount of ChAT mRNA expression levels in the vehicle administration group ([2]; oral 3 mg/kg) [%] | Amount (%) increased from the amount of ChAT mRNA expression levels in the vehicle administration group ([2]; oral 10 mg/kg) [%]
CN1CCc2c(sc3nc4n(c(=O)c23)-c2ccsc2C(=O)N(C)C4)C1 [Example 2, 5,10-dimethyl-5,6,9,10,11,12-hexahydropyrido[4″,3″:4′,5′]thieno[2′,3′:4,5]pyrimido[1,2-a]thieno[2,3-f][1,4]diazepine-4,13-dione] | 0.1 | 38.0 | 
CN1CCc2c(sc3nc4n(c(=O)c23)[C@@H]2CCC[C@@H]2C(=O)N(C)C4)C1 [Example 4, (3aS,14aR)-5,10-dimethyl-3,3a,5,6,9,10,11,12-octahydro-1H-cyclopenta[f]pyrido[4″,3″:4′,5′]thieno[2′,3′:4,5]pyrimido[1,2-a][1,4]diazepine-4,13(2H,14aH)-dione] | 0.1 |  | 42.4
CN1CCc2c(sc3nc4n(c(=O)c23)[C@H]2CCC[C@@H]2C(=O)N(C)C4)C1 [Example 6, (3aS,14aS)-5,10-dimethyl-3,3a,5,6,9,10,11,12-octahydro-H-cyclopenta[f]pyrido[4″,3″:4′,5′]thieno[2′,3′:4,5]pyrimido[1,2-a][1,4]diazepine-4,13(2H,14aH)-dione] | 0.03 |  | 32.0
CN1CCc2c(sc3nc4n(c(=O)c23)[C@@H]2CCC[C@H]2C(=O)N(C)C4)C1 [Example 5, (3aR,14aR)-5,10-dimethyl-3,3a,5,6,9,10,11,12-octahydro-1H-cyclopenta[f]pyrido[4″,3″:4′ 5′]thieno[2′,3′:4,5]pyrimido[1,2-a][1,4]diazepine-4,13(2H,14aH)-dione] | 0.1 | 33.6 | 
